Data published in patent US20160039936A1, “FIBROBLAST GROWTH FACTOR RECEPTOR INHIBITION FOR THE TREATMENT OF DISEASE” (UNIVERSITY OF MIAMI, priority 2011, published 2016).

B1: FGF2: recombinant mouse FGF2 (Ala11-Ser154) (R&D Systems) (protein)
chain: ALPEDGGAAFPPGHFKDPKRLYCKNGGFFLRIHPDGRVDGVREKSDPHVKLQLQAEERGVVSIKGVCANRYLAMKEDGRLLASKCVTEECFFFERLESNNYNTYRSRKYSSWYVALKRTGQYKLGSKTGPGQKAILFLPMSAKS

Key:
[1] = tested on: 5/6 nephrectomy rat model of CKD; assay: 5/6 nephrectomy rat model of CKD; format: in vivo; settings: PD173074 1 mg/kg/day i.p. 14 days
Description: FGFR activity is required for the development of LVH in a rat model of CKD Since the cardiac effects of FGF23 are mediated by FGFR activation and could be blocked in vitro by the FGFR inhibitor PD173074, we tested the hypothesis that PD173074 could also attenuate LVH in the 5/6 nephrectomy rat model of CKD, which is known to develop increased FGF23 levels, severe hypertension, and LVH. We performed 5/6 nephrectomy in male Sprague Dawley rats using standard surgical techniques, and administered by intra-peritoneal injection either 1 mg/kg body weight/day of PD173074 dissolved in PBS (n=6) or vehicle alone (n=6) beginning one hour after surgery and continued daily for 14 days (FIG. 7). As a negative control, 6 rats underwent sham nephrectomy. At day 14 after surgery, we measured blood pressure, performed echocardiograms, collected blood for laboratory testing, sacrificed the animals and examined their hearts. […] Compared with vehicle, PD 173074 treatment led to decreased left ventricular mass, reduced ratio of heart weight to total body weight, decreased left ventricular wall thickness and relative wall thickness, decreased cross-sectional surface area of individual cardiac myocytes, and increased left ventricular end diastolic volume and ejection fraction (FIG. 7A-C). […]
Kidney disease was induced in Sprague Dawley rats using the 5/6 nephrectomy method (Di Marco et al., 2014). Rats were randomized to 3 groups of 6 animals each: sham nephrectomy, or 5/6 nephrectomy plus intra-peritoneal injections of vehicle (PBS) or anti-FGFR4 blocking antibody (human monoclonal, U3-11; U3Pharma) at 25 mg/kg/day every 3 days beginning one hour after surgery. High-resolution echocardiography (15 MHz) was performed at 14 days after surgery to assess LV mass, wall and chamber dimensions, and systolic and diastolic function using an HDI 5000 Ultrasound system (Philips, Best, The Netherlands). M-mode, 2D and 3D recordings were obtained under general anesthesia delivered through a nose mask while heart rate and body temperature were maintained. Blood pressure was measured in conscious rats using a computerized rat-tail cuff technique (CODA, Kent Scientific Corporation). On day 14, animals were sacrificed and the hearts were isolated and prepared for histological and serological analyses.
Short-axis heart sections were stained with hematoxylin and eosin (VWR) and used to quantify myocardial thickness by measuring the distance from the inner to the outer myocardial edges at the mid-chamber zone. Mean left ventricular free wall thickness was calculated from seven measurements of wall thickness taken at 0, 30, 60, 90, 120, 150 and 180 degrees along the hemi-circle of the short axis of the free wall. Images were taken on a Nikon SMZ 1500 microscope using 0.75× magnification.
We measured cross-sectional area of individual cardiac myocytes in paraffin-embedded short-axis sections of mouse and rat hearts. Briefly, 7 μm thick sections were deparaffinized according to our established protocols (Faul et al., 2011). To visualize cellular borders, fixed tissue was incubated with wheat germ agglutinin (WGA) conjugated to Alexa Fluor555 (Invitrogen) at 1 mg/ml in PBS containing 10 mM sodium azide. Immunofluorescence images were taken on a Leica TCS-SP5 confocal microscope with a 63× oil objective. Leica AF6000 fluorescence software was used to quantify cross-sectional area of 25 cells per field at four fields along the mid-chamber free wall based on WGA-positive staining.
Short-axis cardiac sections from mice and rats were stained with Picrosirius Red (Sigma-Aldrich) and used to quantify myocardial fibrosis. Sections were deparaffinized, counterstained with hematoxylin (VWR) and incubated in Picrosirius Red solution for 60 minutes. After washing in acidified water, sections were dehydrated in ascending ethanol series and mounted in non-aqueous mounting media. […]

[2] = tested on: isolated NRVM; assay: Ras/MAPK signaling (phospho-FRS2α, phospho-ERK1/2) Western blot in NRVM; format: cell-based, rat; settings: 30 minutes, FGF alone
Description: HEK293 cells, NRVM or NMVM were treated with growth factors for 30 minutes to analyze activation of signal transduction mediators, or for 48 hours to analyze expression levels of hypertrophic marker proteins. Cells were scraped from 6-well plates using 500 μl CHAPS extraction buffer (20 mM Tris-HCl pH7.5, 500 mM NaCl, 0.5% CHAPS, protease inhibitor cocktail (Roche), protein phosphatase inhibitors [Sigma-Aldrich]) and incubated on ice for 30 minutes. The cell lysate was centrifuged at 14,000 rpm and 4° C. for 30 minutes, and the supernatant boiled in sample buffer and analyzed by SDS-PAGE and immunoblotting. For protein extraction from mouse hearts, tissue was isolated, minced and homogenized in RIPA extraction buffer (50 mM Tris-HCl pH 7.5, 200 mM NaCl, 1% Triton X-100, 0.25% DOC, 1 mM EDTA, 1 mM EGTA, protease and phosphatase inhibitors) at 1:10 (w:v), and protein lysates were prepared as described above. […]

Molecule | 5/6 nephrectomy-induced increased cardiac β-MHC and ANP and decreased MCAD mRNA [1] | blood pressure vs vehicle [1] | renal function and serum FGF23 levels vs vehicle [1] | LVH ([1]; vs vehicle) | cross-sectional surface area of individual cardiac myocytes ([1]; vs vehicle) | left ventricular end diastolic volume and ejection fraction ([1]; vs vehicle) | left ventricular mass ([1]; vs vehicle) | left ventricular wall thickness and relative wall thickness ([1]; vs vehicle) | ratio of heart weight to total body weight ([1]; vs vehicle) | hepatic expression of p-ERK protein levels ([1]; vs sham and 5/6 nephrectomized rats) | levels of phosphorylated FRS2α and ERK1/2 [2]
CCN(CC)CCCCNc1ncc2cc(-c3cc(OC)cc(OC)c3)c(NC(=O)NC(C)(C)C)nc2n1 [PD173074] | not observed | no difference was detected | no differences | significantly attenuated | decreased | increased | decreased | decreased | reduced | decreased | 
B1 |  |  |  |  |  |  |  |  |  |  | increased
